Patent US5484776A, “Process for the production of stable liquid form of beta-blocker-containing medicaments with controlled release of the active constituent for oral administration” (Synepos Aktiengesellschaft, priority 1993, dated 1996)

Assay: Drop size / reproducibility of drops of oral solutions with xanthan gum
Assay type: physicochemical
Conditions: metoprolol 200 mg/ml, sotalol 160 mg/ml, atenolol 50 mg/ml, n = 10
Description: It was found also in this respect that when the concentration of Xanthan Gum was varied in the solution, the scattering of the exact number of drops was higher at both below and above 0.1% than at about this particular concentration (see Table II.).
Using a standard medicine dropper, 10 drops of the medicinal solutions prepared according to Examples 1-11 contain one usual dose of the beta-blocker in a stable form and ensuring reproducible dosage with the required accuracy, the difference by one drop corresponding to a deviation of less than 10%.
Drop size values of different solutions of β-blockers
and xanthan gum as auxiliary material (n = 10,

Average Mass of 10 Drops (0.001% xanthan gum) [g] | Average Mass of 10 Drops (0.01% xanthan gum) [g] | Average Mass of 10 Drops (0.1% xanthan gum) [g] | Average Mass of 10 Drops (0.25% xanthan gum) [g] | Average Mass of 10 Drops (0.5% xanthan gum) [g] | SMILES
0.3490 | 0.3446 | 0.3301 | 0.3497 | 0.3559 | COCCc1ccc(OCC(O)CNC(C)C)cc1 (stereo not drawn) [Metoprolol, metoprolol]
0.3805 | 0.4067 | 0.4171 | 0.4345 | 0.4052 | CC(C)NCC(O)c1ccc(NS(C)(=O)=O)cc1 (stereo not drawn) [Sotalol, sotalol]
0.4038 | 0.4094 | 0.4395 | 0.4604 | 0.4456 | CC(C)NCC(O)COc1ccc(CC(N)=O)cc1 (stereo not drawn) [Atenolol, atenolol]
